This is an account of results in patent US10654828B2 (NOVARTIS AG, priority 2017, dated 2020).

One test deals with FoxO3a. The test is described as follows: FoxO3a inhibition: GFP-FoxO3a nuclear to cytoplasmic translocation reporter assay. The class given is cell-based. As to conditions: Homo sapiens, U2OS, 0.5 h, U2OS GFP-FoxO3a H212R cells, serum starved overnight, compound 30 minutes; ratio of nuclear to cytosolic GFP intensity; DMSO control 0%; read-out: FoxO AC50. In a few lines: (§1)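 Serum-starved U2OS cells expressing GFP-FoxO3a H212R treated with compounds 30 min, fixed, imaged. FoxO3a: nuclear/cytosolic GFP ratio, %. AKT: total cellular phospho-AKT (Ser473) antibody staining intensity, %. DMSO set as 0% activity.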
On the technique in general: Reporter assays use an easily measured gene product as a stand-in for the process of interest.

The next test concerns AKT. The test is described as follows: AKT activation: Phospho-AKT (Ser473) antibody staining in reporter cells. The class given is cell-based. As to conditions: Homo sapiens, U2OS, 0.5 h, U2OS GFP-FoxO3a H212R cells, serum starved overnight, compound 30 minutes; total cellular intensity of Phospho-AKT (Ser473) staining; DMSO control 0%. A digest of the protocol: as §1

As to `Cc1cc(C(N)=O)nn1-c1ccc2c(ccn2Cc2ccc(C#CCN(C)C)cc2)c1` [Example 12, 1-(1-(4-(3-(dimethylamino)prop-1-yn-1-yl)benzyl)-1H-indol-5-yl)-5-methyl-1H-pyrazole-3-carboxamide], the values for the AC50 in the test on FoxO3a and with AKT were 402 nM and 1190 nM, respectively.
For `Cc1cc(C(N)=O)nn1-c1ccc2c(ccn2Cc2ccc(C3=CCN(C)C(C)(C)C3)cc2)c1` [Example 15-1, 5-methyl-1-(1-(4-(1,2,2-trimethyl-1,2,3,6-tetrahydropyridin-4-yl)benzyl)-1H-indol-5-yl)-1H-pyrazole-3-carboxamide], in that order: 242 nM and 391 nM.
In the case of `Cc1cc(C(N)=O)nn1-c1ccc2c(ccn2Cc2ccc(C3=CCN(C)CC3(C)C)cc2)c1` [Example 15-2, 5-methyl-1-(1-(4-(1,3,3-trimethyl-1,2,3,6-tetrahydropyridin-4-yl)benzyl)-1H-indol-5-yl)-1H-pyrazole-3-carboxamide], the AC50 (in general, the concentration at which the activity in the assay is half-maximal) with FoxO3a came to 197 nM; in the test with AKT it was 389 nM.
For the molecule `Cc1cc(C(N)=O)nn1-c1ccc2c(ccn2Cc2ccc(C3=CCC4(CC3)CN(C)C4)cc2)c1` [Example 15-3, 5-methyl-1-(1-(4-(2-methyl-2-azaspiro[3.5]non-6-en-7-yl)benzyl)-1H-indol-5-yl)-1H-pyrazole-3-carboxamide], the AC50 in the test with FoxO3a was 96 nM; in the test on AKT, 398 nM.
As to `Cc1cc(C(N)=O)nn1-c1ccc2c(ccn2Cc2ccc(C3CCN(C)CC3(C)C)cc2)c1` (stereo not shown) [Example 16-1, 5-methyl-1-(1-(4-(1,3,3-trimethylpiperidin-4-yl)benzyl)-1H-indol-5-yl)-1H-pyrazole-3-carboxamide], the AC50 in the test on FoxO3a came to 171 nM; with AKT it was 966 nM.
For `Cc1cc(C(N)=O)nn1-c1ccc2c(ccn2Cc2ccc(C3CCC4(CC3)CN(C)C4)cc2)c1` [Example 16-4, 5-methyl-1-(1-(4-(2-methyl-2-azaspiro[3.5]nonan-7-yl)benzyl)-1H-indol-5-yl)-1H-pyrazole-3-carboxamide], in that order: 186 nM and 756 nM.
For `Cc1cc(C(N)=O)nn1-c1ccc2c(ccn2Cc2ccc(C3=CCN(C)CC3C)cc2)c1` (stereo not shown) [Example 17-1, 1-(1-(4-(1,3-dimethyl-1,2,3,6-tetrahydropyridin-4-yl)benzyl)-1H-indol-5-yl)-5-methyl-1H-pyrazole-3-carboxamide], in that order: 102 nM and 460 nM.
Regarding `Cc1cc(C(N)=O)nn1-c1ccc2c(ccn2Cc2ccc(-c3ccc(S(=O)(=O)CCO)cc3)cc2)c1` [Example 18, 1-(1-((4′-((2-hydroxyethyl)sulfonyl)-[1,1′-biphenyl]-4-yl)methyl)-1H-indol-5-yl)-5-methyl-1H-pyrazole-3-carboxamide], the values for the AC50 with FoxO3a and in the test with AKT were 57 nM and 110 nM, respectively.
With `Cc1cc(C(N)=O)nn1-c1ccc2c(ccn2Cc2ccc(-c3ccc(S(=O)(=O)CCN4CCN(C)CC4)cc3)cc2)c1` [Example 19, 5-methyl-1-(1-((4′-((2-(4-methylpiperazin-1-yl)ethyl)sulfonyl)-[1,1′-biphenyl]-4-yl)methyl)-1H-indol-5-yl)-1H-pyrazole-3-carboxamide], the values for the AC50 in the test on FoxO3a and in the test on AKT were 61 nM and 142 nM, respectively.
Take `Cc1cc(C(N)=O)nn1-c1ccc2c(c1)c(C1=CCOCC1)cn2Cc1ccc(-c2ccc(S(C)(=O)=O)cc2)cc1` [Example 19-1, 1-(3-(3,6-dihydro-2H-pyran-4-yl)-1-((4′-(methylsulfonyl)-[1,1′-biphenyl]-4-yl)methyl)-1H-indol-5-yl)-5-methyl-1H-pyrazole-3-carboxamide]: the figures for the AC50 with FoxO3a and with AKT were 52 nM and 81 nM, respectively.
As for `Cc1cc(C(N)=O)nn1-c1ccc2c(c1)c(C1=CCN(C)CC1)cn2Cc1ccc(-c2ccc(S(C)(=O)=O)cc2)cc1` [Example 19-2, 5-methyl-1-(3-(1-methyl-1,2,3,6-tetrahydropyridin-4-yl)-1-((4′-(methylsulfonyl)-[1,1′-biphenyl]-4-yl)methyl)-1H-indol-5-yl)-1H-pyrazole-3-carboxamide], the AC50 with FoxO3a came out at 346 nM; in the test on AKT it was 1020 nM.
For `Cc1cc(C(N)=O)nn1-c1ccc2c(ccn2Cc2ccc(-c3ccc(S(=O)(=O)CCN(C)C)cc3)cc2)c1` [Example 19-3, 1-(1-((4′-((2-(dimethylamino)ethyl)sulfonyl)-[1,1′-biphenyl]-4-yl)methyl)-1H-indol-5-yl)-5-methyl-1H-pyrazole-3-carboxamide], in that order: 99 nM and 128 nM.
Take `Cc1cc(C(N)=O)nn1-c1ccc2c(c1)c(C1CCOCC1)cn2Cc1ccc(-c2ccc(S(C)(=O)=O)cc2)cc1` [Example 20, 5-methyl-1-(1-((4′-(methylsulfonyl)-[1,1′-biphenyl]-4-yl)methyl)-3-(tetrahydro-2H-pyran-4-yl)-1H-indol-5-yl)-1H-pyrazole-3-carboxamide]: the AC50 in the test with FoxO3a came out at 68 nM; in the test with AKT, 186 nM.
As for `Cc1cc(C(N)=O)nn1-c1ccc2c(c1)c(C1=CCNCC1)cn2Cc1ccc(-c2ccc(S(C)(=O)=O)cc2)cc1` [Example 21, 5-methyl-1-(1-((4′-(methylsulfonyl)-[1,1′-biphenyl]-4-yl)methyl)-3-(1,2,3,6-tetrahydropyridin-4-yl)-1H-indol-5-yl)-1H-pyrazole-3-carboxamide], the AC50 in the test with FoxO3a was found to be 598 nM; with AKT, 1650 nM.
`Cc1cc(C(N)=O)nn1-c1ccc2c(c1)c(CCCO)cn2Cc1ccc(-c2ccc(S(C)(=O)=O)cc2)cc1` [Example 22, 1-(3-(3-hydroxypropyl)-1-((4′-(methylsulfonyl)-[1,1′-biphenyl]-4-yl)methyl)-1H-indol-5-yl)-5-methyl-1H-pyrazole-3-carboxamide]: the AC50 in the test with FoxO3a was 32 nM; with AKT, 81 nM.
In the case of `COCCCc1cn(Cc2ccc(-c3ccc(S(C)(=O)=O)cc3)cc2)c2ccc(-n3nc(C(N)=O)cc3C)cc12` [Example 23, 1-(3-(3-methoxypropyl)-1-((4′-(methylsulfonyl)-[1,1′-biphenyl]-4-yl)methyl)-1H-indol-5-yl)-5-methyl-1H-pyrazole-3-carboxamide], the concentration at half-maximal activity (AC50) in the test with FoxO3a worked out at 56 nM; in the test on AKT, 173 nM.
`Cc1cc(C(N)=O)nn1-c1ccc2c(ccn2Cc2ccc([C@@H]3C[C@@H]4CN(C)C[C@@H]4C3)cc2)c1` [Example 26-1, 5-methyl-1-(1-(4-((3aR,5r,6aS)-2-methyloctahydrocyclopenta[c]pyrrol-5-yl)benzyl)-1H-indol-5-yl)-1H-pyrazole-3-carboxamide]: the AC50 was found to be 95 nM in the test with FoxO3a and 314 nM in the test with AKT.
In the case of `Cc1cc(C(N)=O)nn1-c1ccc2c(ccn2Cc2ccc([C@H]3C[C@@H]4CN(C)C[C@@H]4C3)cc2)c1` [Example 26-2, 5-methyl-1-(1-(4-((3aR,5s,6aS)-2-methyloctahydrocyclopenta[c]pyrrol-5-yl)benzyl)-1H-indol-5-yl)-1H-pyrazole-3-carboxamide], the figures for the AC50 with FoxO3a and in the test with AKT were 80 nM and 362 nM, respectively.
As for `Cc1nc(C(N)=O)nn1-c1ccc2c(ccn2Cc2ccc([C@@H]3C[C@@H]4CN(C)C[C@@H]4C3)cc2)c1` [Example 27, 5-methyl-1-(1-(4-((3aR,5r,6aS)-2-methyloctahydrocyclopenta[c]pyrrol-5-yl)benzyl)-1H-indol-5-yl)-1H-1,2,4-triazole-3-carboxamide], the half-maximal activity concentration (AC50) in the test on FoxO3a was found to be 224 nM; in the test with AKT it was 947 nM.
As to `Cc1nc(C(N)=O)nn1-c1ccc2c(ccn2Cc2ccc(-c3ccc(CN4CCCC4)cc3)cc2)c1` [Example 28, 5-methyl-1-(1-((4′-(pyrrolidin-1-ylmethyl)-[1,1′-biphenyl]-4-yl)methyl)-1H-indol-5-yl)-1H-1,2,4-triazole-3-carboxamide], the AC50 with FoxO3a came to 87 nM; in the test with AKT it was 251 nM.
In the case of `Cc1cc(C(N)=O)nn1-c1ccc2c(ccn2Cc2ccc(-c3ccc(S(C)(=O)=O)nc3)cc2)c1` [Example 30-1, 5-methyl-1-(1-(4-(6-(methylsulfonyl)pyridin-3-yl)benzyl)-1H-indol-5-yl)-1H-pyrazole-3-carboxamide], the AC50 in the test with FoxO3a came out at 124 nM; with AKT, 633 nM.
For `Cc1cc(C(N)=O)nn1-c1ccc2c(ccn2Cc2ccc(-c3ccc(C(C)(C)O)cn3)cc2)c1` [Example 30-2, 1-(1-(4-(5-(2-hydroxypropan-2-yl)pyridin-2-yl)benzyl)-1H-indol-5-yl)-5-methyl-1H-pyrazole-3-carboxamide], in that order: 223 nM and 320 nM.
`Cc1cc(C(N)=O)nn1-c1ccc2c(ccn2Cc2ccc(-c3ccc(C(C)(C)O)nc3)cc2)c1` [Example 30-3, 1-(1-(4-(6-(2-hydroxypropan-2-yl)pyridin-3-yl)benzyl)-1H-indol-5-yl)-5-methyl-1H-pyrazole-3-carboxamide]: the AC50 with FoxO3a was 126 nM; in the test on AKT it was 572 nM.
`Cc1cc(C(N)=O)nn1-c1ccc2c(ccn2Cc2ccc(CC3CN(C)C3)cc2)c1` [Example 32, 5-methyl-1-(1-(4-((1-methylazetidin-3-yl)methyl)benzyl)-1H-indol-5-yl)-1H-pyrazole-3-carboxamide]: the half-maximal activity concentration (AC50) with FoxO3a was found to be 1040 nM; with AKT it was 4360 nM.
Consider `Cc1cc(C(N)=O)nn1-c1ccc2c(ccn2Cc2ccc([C@@]34C[C@@H]3CN(C)C4)cc2)c1` [Example 33, 5-methyl-1-(1-(4-((1R,5S)-3-methyl-3-azabicyclo[3.1.0]hexan-1-yl)benzyl)-1H-indol-5-yl)-1H-pyrazole-3-carboxamide], for which the AC50 with FoxO3a amounted to 383 nM; with AKT, 2810 nM.
`Cc1cc(C(N)=O)nn1-c1ccc2c(ccn2Cc2ccc(-c3ccc(CN4CCC[C@H]4CO)cc3)cc2)c1` [Example 34-1, (S)-1-(1-((4′-((2-(hydroxymethyl)pyrrolidin-1-yl)methyl)-[1,1′-biphenyl]-4-yl)methyl)-1H-indol-5-yl)-5-methyl-1H-pyrazole-3-carboxamide]: the AC50 in the test with FoxO3a came out at 119 nM; in the test on AKT, 184 nM.
